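Interpolation was linear, between the two tested concentrations surrounding the appropriate level; five concentrations were tested over 48 hours in 96-well plates. TGI is the concentration that stops growth completely.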
How the values were obtained:
Experiment in all cases: NCI tumour cell line growth inhibition, 48 h
786-0 renal = tested on: 786-0 renal
A498 renal = tested on: A498 renal
A549 NSCLC = tested on: A549 NSCLC
BT-549 breast = tested on: BT-549 breast
CAKI-1 renal = tested on: CAKI-1 renal
CCRF-CEM leukemia = tested on: CCRF-CEM leukemia
COLO 205 colon = tested on: COLO 205 colon
DU-145 prostate = tested on: DU-145 prostate
HCC-2998 colon = tested on: HCC-2998 colon
HCT-15 colon = tested on: HCT-15 colon
HL-60(TB) leukemia = tested on: HL-60(TB) leukemia
HOP-62 NSCLC = tested on: HOP-62 NSCLC
HOP-92 NSCLC = tested on: HOP-92 NSCLC
HS 578T breast = tested on: HS 578T breast
IGROV1 ovarian = tested on: IGROV1 ovarian
K-562 leukemia = tested on: K-562 leukemia
KM12 colon = tested on: KM12 colon
LOX IMVI melanoma = tested on: LOX IMVI melanoma
M14 melanoma = tested on: M14 melanoma
MALME-3M melanoma = tested on: MALME-3M melanoma
MCF7 breast = tested on: MCF7 breast
MDA-MB-231 breast = tested on: MDA-MB-231 breast
MDA-N = tested on: MDA-N
MOLT-4 leukemia = tested on: MOLT-4 leukemia
NCI-H226 lung = tested on: NCI-H226 lung
NCI-H23 lung = tested on: NCI-H23 lung
NCI-H460 lung = tested on: NCI-H460 lung
NCI/ADR-RES ovarian = tested on: NCI/ADR-RES ovarian
OVCAR-4 ovarian = tested on: OVCAR-4 ovarian
RPMI-8226 leukemia = tested on: RPMI-8226 leukemia
SF-268 CNS = tested on: SF-268 CNS
SF-539 CNS = tested on: SF-539 CNS
SK-MEL-5 melanoma = tested on: SK-MEL-5 melanoma
SK-OV-3 ovarian = tested on: SK-OV-3 ovarian
SN12C renal = tested on: SN12C renal
SNB-75 CNS = tested on: SNB-75 CNS
SR leukemia = tested on: SR leukemia
SW-620 colon = tested on: SW-620 colon
T-47D breast = tested on: T-47D breast
U251 CNS = tested on: U251 CNS
UACC-257 melanoma = tested on: UACC-257 melanoma
UACC-62 melanoma = tested on: UACC-62 melanoma
UO-31 renal = tested on: UO-31 renal
ACHN renal = tested on: ACHN renal
EKVX NSCLC = tested on: EKVX NSCLC
HCT-116 colon = tested on: HCT-116 colon
HT29 colon = tested on: HT29 colon
MDA-MB-435 = tested on: MDA-MB-435
NCI-H522 lung = tested on: NCI-H522 lung
OVCAR-3 ovarian = tested on: OVCAR-3 ovarian
OVCAR-5 ovarian = tested on: OVCAR-5 ovarian
OVCAR-8 ovarian = tested on: OVCAR-8 ovarian
PC-3 prostate = tested on: PC-3 prostate
RXF 393 renal = tested on: RXF 393 renal
SF-295 CNS = tested on: SF-295 CNS
SK-MEL-2 melanoma = tested on: SK-MEL-2 melanoma
SK-MEL-28 melanoma = tested on: SK-MEL-28 melanoma
SNB-19 CNS = tested on: SNB-19 CNS
TK-10 renal = tested on: TK-10 renal

COc1ccc(/C(C)=N/NC(=O)c2ccncc2)cc1OC was tested, and the TGI (786-0 renal) was > 10 µM, the TGI (A498 renal) was > 10 µM and the TGI (A549 NSCLC) was > 10 µM. The TGI (BT-549 breast) was > 10 µM, the TGI (CAKI-1 renal) was > 10 µM and the TGI (CCRF-CEM leukemia) was > 10 µM. The TGI (COLO 205 colon) was > 10 µM, the TGI (DU-145 prostate) was > 10 µM and the TGI (HCC-2998 colon) was > 10 µM. For the same compound, the TGI (HCT-15 colon) was > 10 µM, the TGI (HL-60(TB) leukemia) was > 10 µM and the TGI (HOP-62 NSCLC) was > 10 µM. For the same compound, the TGI (HOP-92 NSCLC) was > 10 µM, the TGI (HS 578T breast) was > 10 µM and the TGI (IGROV1 ovarian) was > 10 µM. The TGI (K-562 leukemia) was > 10 µM, the TGI (KM12 colon) was > 10 µM and the TGI (LOX IMVI melanoma) was > 10 µM. For the same compound, the TGI (M14 melanoma) was > 10 µM, the TGI (MALME-3M melanoma) was > 10 µM and the TGI (MCF7 breast) was > 10 µM. The TGI (MDA-MB-231 breast) was > 10 µM, the TGI (MDA-N) was > 10 µM and the TGI (MOLT-4 leukemia) was > 10 µM. The TGI (NCI-H226 lung) was > 10 µM, the TGI (NCI-H23 lung) was > 10 µM and the TGI (NCI-H460 lung) was > 10 µM. For the same compound, the TGI (NCI/ADR-RES ovarian) was > 10 µM, the TGI (OVCAR-4 ovarian) was > 10 µM and the TGI (RPMI-8226 leukemia) was > 10 µM. For the same compound, the TGI (SF-268 CNS) was > 10 µM, the TGI (SF-539 CNS) was > 10 µM and the TGI (SK-MEL-5 melanoma) was > 10 µM. The TGI (SK-OV-3 ovarian) was > 10 µM, the TGI (SN12C renal) was > 10 µM and the TGI (SNB-75 CNS) was > 10 µM. The TGI (SR leukemia) was > 10 µM, the TGI (SW-620 colon) was > 10 µM and the TGI (T-47D breast) was > 10 µM. The TGI (U251 CNS) was > 10 µM, the TGI (UACC-257 melanoma) was > 10 µM and the TGI (UACC-62 melanoma) was > 10 µM. For the same compound, the TGI (UO-31 renal) was > 10 µM.
Compound O=C(NCCN1CCCC1)c1cn2c(ccc3sc4ccccc4c(=O)c32)n1 has a TGI (786-0 renal) of 2.78 µM, a TGI (A498 renal) of 33.1 µM and a TGI (A549 NSCLC) of 24.5 µM. The TGI (ACHN renal) was 21.2 µM, the TGI (BT-549 breast) was 35.6 µM and the TGI (CAKI-1 renal) was 24.2 µM. The TGI (CCRF-CEM leukemia) was 4.53 µM, the TGI (COLO 205 colon) was 26.7 µM and the TGI (DU-145 prostate) was 26.3 µM. For the same compound, the TGI (EKVX NSCLC) was 34.8 µM, the TGI (HCC-2998 colon) was 18.6 µM and the TGI (HCT-116 colon) was 8.57 µM. For the same compound, the TGI (HCT-15 colon) was 24.4 µM, the TGI (HL-60(TB) leukemia) was 26.8 µM and the TGI (HOP-62 NSCLC) was 25.8 µM. The TGI (HOP-92 NSCLC) was 30.1 µM, the TGI (HS 578T breast) was 33.3 µM and the TGI (HT29 colon) was 7.67 µM. It also gave a TGI (IGROV1 ovarian) of 25 µM, a TGI (KM12 colon) of 37.5 µM and a TGI (LOX IMVI melanoma) of 3.4 µM. It also gave a TGI (M14 melanoma) of 29.2 µM, a TGI (MALME-3M melanoma) of 31.8 µM and a TGI (MDA-MB-231 breast) of 7.52 µM. For the same compound, the TGI (MDA-MB-435) was > 56.6 µM, the TGI (MDA-N) was 33.1 µM and the TGI (MOLT-4 leukemia) was 7.42 µM. It also gave a TGI (NCI-H226 lung) of 38.1 µM, a TGI (NCI-H23 lung) of 32.4 µM and a TGI (NCI-H460 lung) of 18.6 µM. The TGI (NCI-H522 lung) was 27.4 µM, the TGI (NCI/ADR-RES ovarian) was 31.2 µM and the TGI (OVCAR-3 ovarian) was 29.1 µM. It also gave a TGI (OVCAR-4 ovarian) of 26.3 µM, a TGI (OVCAR-5 ovarian) of 24.2 µM and a TGI (OVCAR-8 ovarian) of 9.82 µM. The TGI (PC-3 prostate) was 27.4 µM, the TGI (RPMI-8226 leukemia) was 5.7 µM and the TGI (RXF 393 renal) was 24.6 µM. The TGI (SF-268 CNS) was 30.1 µM, the TGI (SF-295 CNS) was 27.1 µM and the TGI (SF-539 CNS) was 30.2 µM. The TGI (SK-MEL-2 melanoma) was 36 µM, the TGI (SK-MEL-28 melanoma) was 33.8 µM and the TGI (SK-MEL-5 melanoma) was 31.2 µM. The TGI (SK-OV-3 ovarian) was 30 µM, the TGI (SN12C renal) was 26.9 µM and the TGI (SNB-19 CNS) was 31.2 µM. For the same compound, the TGI (SNB-75 CNS) was 34.1 µM, the TGI (SR leukemia) was 8.79 µM and the TGI (SW-620 colon) was 3.32 µM. The TGI (T-47D breast) was 38.1 µM, the TGI (TK-10 renal) was 25.7 µM and the TGI (U251 CNS) was > 51.7 µM. For the same compound, the TGI (UACC-257 melanoma) was 35 µM, the TGI (UACC-62 melanoma) was 31.3 µM and the TGI (UO-31 renal) was 26.4 µM.
